Patent US20260042755A1, “GPR6 INVERSE AGONISTS” (MapLight Therapeutics, Inc., priority 2022, published 2026)

Experiments:
GPR6 = molecular target: T1, GPR6 (Homo sapiens, UniProt P46095); test: GPR6 antagonist functional cAMP assay (LANCE Ultra cAMP TR-FRET, CHO cells stably expressing GPR6); type: cell-based
T1 construct: expressed in transfected cells; host or cells: CHO cells
How it was run: (§1)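 Suspended cells were plated at 10,000 per well in Krebs-Ringer bicarbonate buffer containing 0.1% BSA and 150 μM Ro 20-1724, then treated with compounds for 45 min at 37 °C. Intracellular cAMP was then quantified by TR-FRET immunoassay.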

GPR3 = molecular target: T2, GPR3 (Homo sapiens, UniProt P46089); test: GPR3 antagonist functional cAMP assay (LANCE Ultra cAMP TR-FRET, CHO cells stably expressing GPR3); type: cell-based
T2 construct: expressed in transfected cells; host or cells: CHO cells
T2 sequence (P46089 whole entry, species assumed): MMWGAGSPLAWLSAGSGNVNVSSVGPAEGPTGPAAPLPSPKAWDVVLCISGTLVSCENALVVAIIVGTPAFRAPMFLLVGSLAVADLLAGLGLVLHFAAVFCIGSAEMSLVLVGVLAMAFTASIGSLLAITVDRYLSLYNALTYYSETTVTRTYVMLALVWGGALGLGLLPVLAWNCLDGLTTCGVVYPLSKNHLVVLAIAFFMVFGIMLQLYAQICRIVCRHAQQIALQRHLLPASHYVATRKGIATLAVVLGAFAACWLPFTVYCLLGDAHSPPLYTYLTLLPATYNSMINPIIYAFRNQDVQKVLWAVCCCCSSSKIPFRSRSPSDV
How it was run: as §1

[1] = CHO cells stably expressing GPR6, cAMP assay
[2] = CHO cells stably expressing GPR3, cAMP assay
[3] = CHO cells stably expressing GPR6, cAMP assay (Example 24)
[4] = CHO cells stably expressing GPR3, cAMP assay (Example 24)
[5] = procedure as described in Example 24

T1 sequence (P46095 whole entry): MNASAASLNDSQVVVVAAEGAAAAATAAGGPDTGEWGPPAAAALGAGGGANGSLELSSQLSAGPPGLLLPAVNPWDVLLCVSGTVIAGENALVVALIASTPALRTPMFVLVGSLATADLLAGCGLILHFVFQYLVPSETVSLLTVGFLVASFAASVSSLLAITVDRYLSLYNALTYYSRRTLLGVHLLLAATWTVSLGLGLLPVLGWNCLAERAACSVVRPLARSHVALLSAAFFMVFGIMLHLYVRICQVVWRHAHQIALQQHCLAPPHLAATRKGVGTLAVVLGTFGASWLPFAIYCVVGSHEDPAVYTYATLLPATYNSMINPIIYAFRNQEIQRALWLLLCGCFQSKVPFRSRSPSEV

Row | Structure (SMILES) | IC50 (GPR6; procedure of Example 24) [µM] | IC50 (GPR3; procedure of Example 24) [µM] | IC50 (GPR6; [3]) [µM] | IC50 (GPR3; [4]) [µM] | further results
1 | CC(=O)N1CCc2nc(N3CCN(C(c4ccccc4)C(F)(F)F)CC3)c(-c3cnn(C)c3)nc2C1 (stereo not shown) [Compound 730, 1-{3-(1-methyl-4-pyrazolyl)-2-[4-(2,2,2-trifluoro-1-phenylethyl)-1-piperazinyl]-5,6,7,8-tetrahydro-1,4,6-triaza-6-naphthyl}-1-ethanone] | 1 to 30 | 1 to 30 |  |  | 
2 | CC(=O)N1CCc2nc(N3CCC(COc4cc(F)ccc4F)C3)c(-c3cnn(C)c3)nc2C1 (stereo not shown) [Compound 364, 1-(2-{3-[(2,5-difluorophenoxy)methyl]pyrrolidin-1-yl}-3-(1-methyl-1H-pyrazol-4-yl)-5H,6H,7H,8H-pyrido[3,4-b]pyrazin-6-yl)ethan-1-one] | 1 to 30 | 1 to 30 |  |  | 
3 | CC(C)(O)C(C)(O)c1cc2nc(N3CCN(Cc4ccc(F)cc4F)CC3)c(-c3cnn(CF)c3)nc2cn1 (stereo not shown) [Compound 607, 2-(2-{4-[(2,4-difluorophenyl)methyl]-1-piperazinyl}-3-[1-(fluoromethyl)-4-pyrazolyl]-1,4,6-triaza-7-naphthyl)-3-methyl-2,3-butanediol] |  |  |  |  | IC50 (GPR6; [1]): 0.1 to 1 µM; IC50 (GPR3; [2]): 1 to 30 µM
4 | CC(=O)N1CCc2nc(N3CCC(Oc4ccc(F)cc4F)CC3)c(C3CCC(=O)CC3)nc2C1 [Compound 404, 4-(6-acetyl-2-(4-(2,4-difluorophenoxy)piperidin-1-yl)-5,6,7,8-tetrahydropyrido[3,4-b]pyrazin-3-yl)cyclohexan-1-one] |  |  | 1 to 30 | 1 to 30 | 
5 | CC(=O)N1CCc2nc(N3CCC(C(F)(F)c4ccc(F)cc4F)CC3)c(-c3cnn(C)c3)nc2C1 [Compound 698, 1-(2-(4-((2,4-difluorophenyl)difluoromethyl)piperidin-1-yl)-3-(1-methyl-1H-pyrazol-4-yl)-7,8-dihydropyrido[3,4-b]pyrazin-6(5H)-yl)ethan-1-one] | 0.1 to 1 | 1 to 30 |  |  | 
6 | CN1CCc2nc(N3CCC(Oc4ccc(F)cc4F)CC3)c(-c3cnn(C4CCCCO4)c3)nc2C1 (stereo not shown) [Compound 169, 4-(2,4-difluorophenoxy)-1-{6-methyl-3-[1-(oxan-2-yl)-1H-pyrazol-4-yl]-5H,6H,7H,8H-pyrido[3,4-b]pyrazin-2-yl}piperidine] |  |  | 1 to 30 | 1 to 30 | 
7 | CC(=O)N1CCc2nc(N3CCC(Oc4ccc(F)cc4F)CC3)c(-c3cnc4n3CCN(C(C)=O)C4)nc2C1 [Compound 17, 1-(3-(6-acetyl-2-(4-(2,4-difluorophenoxy)piperidin-1-yl)-5,6,7,8-tetrahydropyrido[3,4-b]pyrazin-3-yl)-5,6-dihydroimidazo[1,2-a]pyrazin-7(8H)-yl)ethan-1-one] |  |  |  |  | IC50 (GPR6; [5]): 1 to 30 µM; IC50 (GPR3; [5]): 1 to 30 µM
8 | CC(C)(O)C(O)c1cc2nc(-c3cnn(CF)c3)c(N3CCN(Cc4ccc(F)cc4F)CC3)nc2cn1 (single isomer, unassigned) [Compound 602] |  |  |  |  | IC50 (GPR6; [1]): 0.1 to 1 µM; IC50 (GPR3; [2]): 0.1 to 1 µM
9 | CC(=O)N1CCc2nc(N3CCC(COc4ccc(F)cc4)C3)c(-c3cnn(C)c3)nc2C1 (stereo not shown) [Compound 325, 1-(2-{3-[(4-fluorophenoxy)methyl]pyrrolidin-1-yl}-3-(1-methyl-1H-pyrazol-4-yl)-5H,6H,7H,8H-pyrido[3,4-b]pyrazin-6-yl)ethan-1-one] | 1 to 30 | 1 to 30 |  |  | 
10 | CC(=O)N1CCc2nc(N3CCC(Oc4ccc(F)cc4F)CC3)c(-c3cnn(CC4CC4)c3)nc2C1 [Compound 209, 1-{3-[1-(cyclopropylmethyl)-1H-pyrazol-4-yl]-2-[4-(2,4-difluorophenoxy)piperidin-1-yl]-5H,6H,7H,8H-pyrido[3,4-b]pyrazin-6-yl}ethan-1-one] |  |  | 0.1 to 1 | 1 to 30 | 
11 | CC(=O)N1CCc2nc(N3CCC(Oc4ccc(F)cc4F)CC3)c(-c3cccc(CO)n3)nc2C1 [Compound 133, 1-(2-(4-(2,4-difluorophenoxy)piperidin-1-yl)-3-(6-(hydroxymethyl)pyridin-2-yl)-7,8-dihydropyrido[3,4-b]pyrazin-6(5H)-yl)ethan-1-one] |  |  | 1 to 30 | 1 to 30 | 
12 | CC(=O)N1CCc2nc(N3CCN(Cc4cccs4)CC3)c(-c3cnn(C)c3)nc2C1 [Compound 515, 1-[3-(1-methyl-4-pyrazolyl)-2-(4-thenyl-1-piperazinyl)-5,6,7,8-tetrahydro-1,4,6-triaza-6-naphthyl]-1-ethanone] |  |  |  |  | IC50 (GPR6; [1]): 1 to 30 µM; IC50 (GPR3; [2]): 1 to 30 µM
13 | COc1ccc(CN2CCN(c3nc4c(nc3-c3cnn(C)c3)CN(C(C)=O)CC4)CC2)cc1F [Compound 319, 1-(2-{4-[(3-fluoro-4-methoxyphenyl)methyl]piperazin-1-yl}-3-(1-methyl-1H-pyrazol-4-yl)-5H,6H,7H,8H-pyrido[3,4-b]pyrazin-6-yl)ethan-1-one] | 1 to 30 | 1 to 30 |  |  | 
14 | COc1cncc(-c2nc3c(nc2N2CCC(Oc4ccc(F)cc4F)CC2)CCN(C(C)=O)C3)c1 [Compound 38, 1-{2-[4-(2,4-difluorophenoxy)piperidin-1-yl]-3-(5-methoxypyridin-3-yl)-5H,6H,7H,8H-pyrido[3,4-b]pyrazin-6-yl}ethan-1-one] |  |  |  |  | IC50 (GPR6; [5]): 0.1 to 1 µM; IC50 (GPR3; [5]): 1 to 30 µM
15 | CC(C)(O)C(O)c1cc2nc(-c3cnn(C(F)F)c3)c(N3CCN(Cc4ccc(F)cc4F)CC3)nc2cn1 (single isomer, unassigned) [Compound 585] |  |  |  |  | IC50 (GPR6; [1]): < 0.1 µM; IC50 (GPR3; [2]): 0.1 to 1 µM
16 | CCn1cc(-c2nc3c(nc2N2CCC(Oc4ccc(F)cc4F)CC2)CCN(C(=O)C2CC(F)(F)CN2)C3)cn1 (stereo not shown) [Compound 481, (2-(4-(2,4-difluorophenoxy)piperidin-1-yl)-3-(1-ethyl-1H-pyrazol-4-yl)-7,8-dihydropyrido[3,4-b]pyrazin-6(5H)-yl)(4,4-difluoropyrrolidin-2-yl)methanone] |  |  | 0.1 to 1 | 1 to 30 | 
17 | CC(=O)N1CCc2nc(N3CCC(Oc4ccccc4F)C3)c(-c3cnn(C)c3)nc2C1 (stereo not shown) [Compound 340, 1-{2-[3-(2-fluorophenoxy)pyrrolidin-1-yl]-3-(1-methyl-1H-pyrazol-4-yl)-5H,6H,7H,8H-pyrido[3,4-b]pyrazin-6-yl}ethan-1-one] | 1 to 30 | ≥ 30 |  |  | 
18 | CNc1cccc(-c2nc3c(nc2N2CCC(Oc4ccc(F)cc4F)CC2)CCN(C(C)=O)C3)n1 [Compound 117, 1-{2-[4-(2,4-difluorophenoxy)piperidin-1-yl]-3-[6-(methylamino)pyridin-2-yl]-5H,6H,7H,8H-pyrido[3,4-b]pyrazin-6-yl}ethan-1-one] |  |  | 0.1 to 1 | 1 to 30 | 
19 | COCC1CN(c2nc3ccncc3nc2-c2cn[nH]c2)CCN1Cc1ccc(F)cc1F (single isomer, unassigned) [Compound 89, 2-(4-(2,4-difluorobenzyl)-3-(methoxymethyl)piperazin-1-yl)-3-(1H-pyrazol-4-yl)pyrido[3,4-b]pyrazine] |  |  | 1 to 30 | 1 to 30 | 
20 | CC(C)(O)C(O)c1cc2nc(-c3cnn(C(F)F)c3)c(N3CCC(=Cc4ccc(F)cc4F)CC3)nc2cn1 (single isomer, unassigned) [Compound 766] | 0.1 to 1 | 1 to 30 |  |  | 
21 | CC(C)(O)[C@H](O)c1cc2nc(N3CCC(=Cc4ccc(F)cc4F)CC3)c(-c3cnn(C4CC4)c3)nc2cn1 (single isomer, unassigned) [Compound 770] | 0.1 to 1 | 1 to 30 |  |  | 

Now from value to molecule, other results behind:

Row | IC50 (GPR6; procedure of Example 24) [µM] | IC50 (GPR3; procedure of Example 24) [µM] | IC50 (GPR6; [3]) [µM] | IC50 (GPR3; [4]) [µM] | Structure (SMILES) | further results
22 |  |  | 0.1 to 1 | 1 to 30 | Cn1cc(-c2nc3cnc(C(=O)C(C)(C)O)cc3nc2N2CCC(Oc3ccc(F)cc3F)CC2)cn1 [Compound 413, 1-(2-(4-(2,4-difluorophenoxy)piperidin-1-yl)-3-(1-methyl-1H-pyrazol-4-yl)pyrido[3,4-b]pyrazin-7-yl)-2-hydroxy-2-methylpropan-1-one] | 
23 |  |  | 0.1 to 1 | 1 to 30 | Cc1cncc2nc(-c3cnn(C)c3)c(N3CCC(Oc4ccc(F)cc4F)CC3)nc12 [Compound 480, 4-(2,4-difluorophenoxy)-1-[8-methyl-3-(1-methyl-1H-pyrazol-4-yl)pyrido[3,4-b]pyrazin-2-yl]piperidine] | 
24 |  |  | 0.1 to 1 | 1 to 30 | COc1cncc(-c2nc3c(nc2N2CCC(Oc4ccc(F)cc4F)CC2)CCN(C(C)=O)C3)n1 [Compound 87, 1-{2-[4-(2,4-difluorophenoxy)piperidin-1-yl]-3-(6-methoxypyrazin-2-yl)-5H,6H,7H,8H-pyrido[3,4-b]pyrazin-6-yl}ethan-1-one] | 
25 |  |  | < 0.1 | 1 to 30 | COC(=O)N1CCc2nc(N3CCC(Oc4ccc(F)cc4F)CC3)c(-c3cn[nH]c3)nc2C1 [Compound 154, methyl 2-[4-(2,4-difluorophenoxy)piperidin-1-yl]-3-(1H-pyrazol-4-yl)-5H,6H,7H,8H-pyrido[3,4-b]pyrazine-6-carboxylate] | 
26 | 0.1 to 1 | 1 to 30 |  |  | CC(C)(O)[C@](C)(O)c1cc2nc(N3CCC(Oc4ccc(F)cc4F)CC3)c(-c3cnn(CF)c3)nc2cn1 (single isomer, unassigned) [Compound 677] | 
27 |  |  | 1 to 30 | 1 to 30 | COC(=O)c1cc2nc(N3CCC(Oc4ccc(F)cc4F)CC3)c(-c3cnn(C)c3)nc2cn1 [Compound 251, methyl 2-[4-(2,4-difluorophenoxy)piperidin-1-yl]-3-(1-methyl-1H-pyrazol-4-yl)pyrido[3,4-b]pyrazine-7-carboxylate] | 
28 | 0.1 to 1 | 1 to 30 |  |  | Cn1cc(-c2nc3cnc(OCC(C)(C)O)cc3nc2N2CCC(Oc3ccc(F)cc3F)CC2)cn1 [Compound 696, 1-{2-[4-(2,4-difluorophenoxy)-1-piperidyl]-3-(1-methyl-4-pyrazolyl)-1,4,6-triaza-7-naphthyloxy}-2-methyl-2-propanol] | 
29 |  |  | 1 to 30 | 1 to 30 | CNc1cc2nc(N3CCC(Oc4ccc(F)cc4F)CC3)c(-c3cnn(C)c3)nc2cn1 [Compound 433, 2-(4-(2,4-difluorophenoxy)piperidin-1-yl)-N-methyl-3-(1-methyl-1H-pyrazol-4-yl)pyrido[3,4-b]pyrazin-7-amine] | 
